Experimental data: patent publication US12070458B2, “Therapeutic agent composition and method of use, for treatment of mild congnitive impairment, depression, and psychological disorders” (priority 2018, dated 2024)

Experiments:
NR2B-subtype receptors = target: T1, NR2B-subtype receptors (Mus musculus, UniProt P35438+Q01097); test: NR2B receptor occupancy ex vivo (3H Ro 25-6981) after intravenous administration; format: in vivo, CD-1 mice
T1 construct: from tissue; host or cells: forebrain membrane homogenate of male CD-1 mice
Procedure: In this experiment, 8-10 weeks old male CD-1 mice (n=12) were administered intravenously in a vehicle consisting of 10% dimethylacetamide, 40% PEG-400, 30% hydroxypropyl betacyclodextrin, and 30% water with cyclic Prolyl Glycine (0.10 mg: rill, and the forebrains were harvested 15 minutes post-dosing by decapitation. The brain samples were immediately frozen and stored at −80′ C.
On the following day, the dosed brain samples were thawed on ice for 20-30 minutes followed by homogenization using Polytron for 10 seconds in cold homogenization buffer composed of 50 mM KH2PO4 (pH adjusted to 7.4 with KOH), 1 mM EDTA, 0.005% Triton X 100 and protease inhibitor cocktail (Fischer Scientific). The crude homogenates were further homogenized using a Bounce homogenizer (Thomas Scientific) and the homogenized membrane aliquots from all animals were […] and stored at −80° C. until further use. The whole homogenization process was performed on ice.
For determining occupancy, the membrane homogenates were thawed on ice and then needle homogenized using a 25-gauge needle. […] Non-specific binding was determined using 10 μM Ro 25-6981 added to the wells containing membrane homogenates from vehicle-dosed animals. […]

[1] = tested on: extracellular levels of serotonin (5-HT), noradrenaline, dopamine, acetylcholine and histamine; test: Extracellular neurotransmitter levels in rat prefrontal cortex and hippocampus; conditions: in vivo
[2] = tested on: patients with major depressive disorder; test: Double-blind, randomized, placebo-controlled, active reference study in patients with major depressive disorder; format: in vivo, human; conditions: for change from baseline in MADRS total score, Mean ± SD / MADRS total score, Difference to Placebo: week 6
Text: This randomized, double-blind, fixed-dose, placebo-controlled, active reference study recruited 32 randomized patients in accordance with the principles of Good Clinical Practice [ICH (1996). Harmonized Tripartite Guideline E6: Guideline for Good Clinical Practice (http://www.fda.gov/downloads/drugs/guidancecomplianceregulatoryinformation/gui dances/ucm073122.pdf)] and the Declaration of Helsinki [WMA (1964). Ethical Principles for Medical Research Involving Human Subjects (http://www.wma.net/en/30publications/10policies/b3/). World Medical Association.] Local ethics committees approved the study design and eligible patients gave their written informed consent before participating.
Eligible patients were randomized equally (1:1:1:1) to one of the four treatment arms for a 6-week double-blind treatment period. Randomized patients were given 1-week wallet cards at each visit and were instructed to take two capsules per day, orally, at the same time every day (preferably in the morning). NA-831 was dosed at 20 mg/day or 40 mg/d for 6 week and venlafaxine at 75 mg/d over 6-week treatment period. Efficacy and tolerability were assessed at screening, baseline and after 1, 2, 3, 4, 5, and 6 week. Patients were contacted for a safety follow-up 4 week after the completion visit.
Patients with MDD presenting with a current major depressive episode according to DSM-IV-TR criteria were included in the study if they were an outpatient of either sex, aged from 20 yr to 65 yr, (mean=39.7±8.5) (with a Montgomery—Åsberg Depression Rating Scale (MADRS) (Montgomery & Åsberg, 1979) total score ≥30 at the baseline visit. [Montgomery S Åsberg M (1979). A new depression scale designed to be sensitive to change. British Journal of Psychiatry 134 382-389.https://doi.org/10.1192/bjp.134.4.382]
Patients were evaluated using the MADRS from baseline to week 6. Rater training was undertaken to increase inter-rater reliability, and was supervised by an experienced investigator. Only those investigators who had actively participated in rater training sessions prior to inclusion of patients into the study were allowed to rate patients. Patient ratings were assessed by the same investigator at each visit, whenever possible.
All safety analyses were based on the all-patients-treated set (APT), comprising all randomized patients who took at least one dose of study medication. All efficacy analyses were based on a modified intent-to-treat set (ITT)—the full-analysis set (FAS), comprising all patients in the […] who had at least one valid post-baseline MADRS total score assessment.
Four hypotheses were part of the primary efficacy analysis, which was fully adjusted for multiplicity using a hierarchical testing procedure at the 5% level of significance as long as the previous hypothesis was rejected. The order of testing was: no difference between the 20 mg dose vs. placebo at week 6, no difference between […] at week 6, no difference between 20 mg dose vs. placebo at week 1, and finally no difference between 40 mg dose vs. placebo at week 1. The statistical model was an analysis of covariance (ANCOVA) of the change from baseline in MADRS total score (FAS, LOCF) with treatment and site as fixed factors and the baseline MADRS score as a covariate. The primary efficacy analysis was repeated on observed cases (OC) data, using both an ANCOVA and a mixed model for repeated measurements (MMRM).
All adverse effects (AEs) (including any change in concurrent illnesses or new illnesses) either observed by the investigator or reported spontaneously by the patient were recorded. AEs were coded using the lowest level term according to the Medical Dictionary for Regulatory Activities, version 10.0. As a post-hoc analysis, the safety database was searched at preferred-term and verbatim-term level for possible suicide-related AEs, as described by the FDA [Laughren (2006). Memorandum on Suicidality. (http://www.fda.gov/ohrms/dockets/ac/06/briefing/2006-4272b1-01-fda.pdf)].

T1 sequence (Q01097 27-1482, other chains not shown): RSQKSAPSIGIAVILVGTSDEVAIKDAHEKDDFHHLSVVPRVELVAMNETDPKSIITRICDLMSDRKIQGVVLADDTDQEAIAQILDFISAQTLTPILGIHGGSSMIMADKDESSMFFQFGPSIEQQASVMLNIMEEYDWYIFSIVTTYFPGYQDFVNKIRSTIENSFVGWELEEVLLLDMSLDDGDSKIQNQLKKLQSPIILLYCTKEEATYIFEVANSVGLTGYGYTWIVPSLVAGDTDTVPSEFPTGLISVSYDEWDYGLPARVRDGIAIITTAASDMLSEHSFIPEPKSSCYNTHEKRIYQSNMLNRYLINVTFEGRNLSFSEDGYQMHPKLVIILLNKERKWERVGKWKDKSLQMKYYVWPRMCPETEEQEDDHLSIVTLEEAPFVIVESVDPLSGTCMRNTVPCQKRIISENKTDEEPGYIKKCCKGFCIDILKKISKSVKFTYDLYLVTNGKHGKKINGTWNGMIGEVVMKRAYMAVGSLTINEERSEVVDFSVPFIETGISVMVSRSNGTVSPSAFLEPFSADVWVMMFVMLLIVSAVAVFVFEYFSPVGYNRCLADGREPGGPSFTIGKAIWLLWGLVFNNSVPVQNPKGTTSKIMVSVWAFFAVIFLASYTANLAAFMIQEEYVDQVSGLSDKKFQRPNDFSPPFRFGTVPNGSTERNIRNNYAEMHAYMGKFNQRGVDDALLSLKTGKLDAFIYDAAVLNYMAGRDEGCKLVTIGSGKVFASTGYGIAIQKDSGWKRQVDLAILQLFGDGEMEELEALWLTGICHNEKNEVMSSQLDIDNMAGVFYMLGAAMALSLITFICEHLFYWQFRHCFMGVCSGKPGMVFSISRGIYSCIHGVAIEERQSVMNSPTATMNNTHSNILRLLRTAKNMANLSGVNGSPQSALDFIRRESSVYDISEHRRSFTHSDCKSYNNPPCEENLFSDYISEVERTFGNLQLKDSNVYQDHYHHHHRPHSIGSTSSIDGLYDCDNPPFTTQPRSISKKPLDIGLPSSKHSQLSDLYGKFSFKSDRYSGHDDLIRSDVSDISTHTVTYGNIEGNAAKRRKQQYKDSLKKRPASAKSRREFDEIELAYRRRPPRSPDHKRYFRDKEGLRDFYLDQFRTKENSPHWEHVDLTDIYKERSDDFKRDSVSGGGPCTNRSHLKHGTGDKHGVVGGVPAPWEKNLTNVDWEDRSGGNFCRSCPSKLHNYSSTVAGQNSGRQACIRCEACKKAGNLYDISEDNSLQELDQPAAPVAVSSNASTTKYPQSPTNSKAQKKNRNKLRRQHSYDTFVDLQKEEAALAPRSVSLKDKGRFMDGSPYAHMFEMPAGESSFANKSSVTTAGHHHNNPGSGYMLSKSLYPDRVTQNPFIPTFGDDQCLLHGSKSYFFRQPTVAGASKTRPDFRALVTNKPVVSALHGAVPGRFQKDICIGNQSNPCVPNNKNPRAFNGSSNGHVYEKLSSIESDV

Structure (SMILES): O=C1NCC(=O)N2CCC[C@@H]12 [cPG, cyclic Prolyl Glycine]
- receptor occupancy at 1 mg/kg (NR2B-subtype receptors; 1 mg/Kg i.v., at the end of FST): 73%
- receptor occupancy at 3 mg/kg (NR2B-subtype receptors; 3 mg/Kg i.v., forebrains harvested 15 minutes post-dosing): 93%
- extracellular levels of serotonin (5-HT), noradrenaline, dopamine, acetylcholine and histamine [1]: increases
- change from baseline in MADRS total score, Mean ± SD ([2]; LOCF, ANCOVA, 20 mg/day orally): −22.4 ± 1.0
- change from baseline in MADRS total score, Mean ± SD ([2]; LOCF, ANCOVA, 40 mg/d orally): −23.2 ± 1.0
- change from baseline in MADRS total score, Mean ± SD ([2]; MMRM, 20 mg/day orally): −22.3 ± 0.9
- change from baseline in MADRS total score, Mean ± SD ([2]; MMRM, 40 mg/d orally): −24.9 ± 1.1
- MADRS total score, Difference to Placebo ([2]; OC, ANCOVA, 20 mg/day orally): −5.7 ± 1.3
- change from baseline in MADRS total score, Mean ± SD ([2]; OC, ANCOVA, 20 mg/day orally): −22.3 ± 0.9
- MADRS total score, Difference to Placebo ([2]; OC, ANCOVA, 40 mg/d orally): −7.8 ± 1.3
- change from baseline in MADRS total score, Mean ± SD ([2]; OC, ANCOVA, 40 mg/d orally): −24.4 ± 1.0
- tolerability ([2]; human, in vivo): well tolerated
